Patent publication US12559472B2, “Salts of a compound and the crystalline forms thereof” (HUTCHISON MEDIPHARMA LIMITED, priority 2019, dated 2026)
≈ marks a conversion by molar mass, not a printed value.

Columns and labels:
[1] = Solubility in buffers with different pHs and in water (Example 19); format: physicochemical; conditions: for solubility at 30 min: 37 °C, thermodynamic from solid
Experimental: The solubility results were all calculated based on the free form. The buffers with different pHs were prepared according to the United States Pharmacopeia (USP40-NF35).

FGFR = conditions: cited from earlier work

## CNC(=O)c1cc(CCc2cnc(Nc3ccc(N4C[C@@H](C)N[C@@H](C)C4)cc3)nc2)c(Cl)c(OC)c1 [Compound 78, 4-chloro-3-(2-(2-((4-((3S,5R)-3,5-dimethylpiperazin-1-yl)phenyl)amino)pyrimidin-5-yl)ethyl)-5-methoxy-N-methylbenzamide]
[1]; all test media
  Solubility (in words): greatly different solubility in different media
[1]; pH 1.2 buffer (USP), pH 1.2, simulated gastric fluid, pH 1.2 buffer, 30 minutes, calculated based on the free form
  solubility at 30 min: 721 µg/mL (≈ 1420 µM)
[1]; pH 2.1 buffer (USP), pH 2.1, aqueous buffer, pH 2.1 buffer, 30 minutes, calculated based on the free form
  solubility at 30 min: 174 µg/mL (≈ 342 µM)
[1]; pH 4.5 buffer (USP), pH 4.5, aqueous buffer, pH 4.5 buffer, 30 minutes, calculated based on the free form
  solubility at 30 min: ≤ 12600 µg/mL
[1]; pH 4.5 buffer, 37° C., 30 minutes, calculated based on the free form
  Solubility: 12588.8 µg/mL (≈ 24700 µM)
[1]; pH 6.8 buffer (USP), pH 6.8, aqueous buffer, pH 6.8 buffer, 30 minutes, calculated based on the free form
  solubility at 30 min: 67.5 µg/mL (≈ 133 µM)
[1]; purified water, water, 30 minutes, calculated based on the free form
  solubility at 30 min: 2.3 µg/mL (≈ 4.52 µM)
FGFR
  Inhibition of FGFR activity: can effectively inhibit FGFR activity
